Patent US8071625B2, “Certain chemical entities, compositions, and methods” (Cytokinetics, Inc., priority 2006, dated 2011)

biological target: T1, crosslinked smooth muscle actomyosin (chicken gizzard smooth muscle myosin subfragment-1 crosslinked to cardiac or skeletal actin) (Gallus gallus, UniProt P10587); assay: Lead optimization pyruvate kinase/horseradish peroxidase/pyruvate oxidase-coupled ATPase assay (compound dose response); type: biochemical; settings: read-out: IC50 Arithmetic Mean
T1 construct: chicken gizzard smooth muscle myosin subfragment-1; from tissue; host or cells: chicken gizzard
In short: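 The ATPase used chicken gizzard smooth muscle myosin S1 chemically crosslinked to cardiac or skeletal actin, titrated to a set hydrolysis rate. It was coupled via pyruvate kinase/pyruvate oxidase/HRP in 12 mM K-PIPES pH 7.00 (22 °C) with 0.15 mM ATP, 2 mM MgCl2, 100 mM KCl and 0.1 mM Amplex Red. Fluorescence was read at ex 480/em 615 nm, and IC50 came from a 4-parameter fit.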

`Cc1cccc(F)c1NC(=O)OCC1(C(=O)NCc2ccccc2Cl)CCOCC1` [N-[(2-chlorophenyl)methyl](4-{[N-(6-fluoro-2-methylphenyl)carbamoyloxy]methyl}(2H-3,4,5,6-tetrahydropyran-4-yl))carboxamide] and `Cc1ccc(NC(=O)OCC2(C(=O)NCc3ccccc3Cl)CCOCC2)cc1C(F)(F)F` [N-[(2-chlorophenyl)methyl][4-({N-[4-methyl-3-(trifluoromethyl)phenyl]carbamoyloxy}methyl)(2H-3,4,5,6-tetrahydropyran-4-yl)]carboxamide] are within 1.5-fold of each other in IC50: 14.2 µM for the first, 12.1 µM for the second.

First: CCc1ccc(NC(=O)OCC2(C(=O)NCc3ccccc3Cl)CCCCC2)cc1 [N-[(2-chlorophenyl)methyl]({[N-(4-ethylphenyl)carbamoyloxy]methyl}cyclohexyl)carboxamide]
Second: CCc1ccc(NC(=O)OCC2(C(=O)NCc3ccccc3Cl)CC2)cc1 [N-[(2-chlorophenyl)methyl]({[N-(4-ethylphenyl)carbamoyloxy]methyl}cyclopropyl)carboxamide]
The IC50 of the first is 13-fold lower: 0.238 µM for the first, 3.05 µM for the second. The first is the more potent here.

First: CCc1ccc(NC(=O)NC(C)(C)C(=O)NCc2ccccc2Cl)cc1 [N-[(2-chlorophenyl)methyl]-2-{[(4-ethylphenyl)amino]carbonylamino}-2-methylpropanamide]
Second: CCc1ccc(NC(=O)NCC(C)(C)C(=O)NCc2ccccc2Cl)cc1 [N-[(2-chlorophenyl)methyl]-3-{[(4-ethylphenyl)amino]carbonylamino}-2,2-dimethylpropanamide]
The IC50 of the first is 1.5-fold higher: 13.6 µM for the first, 8.82 µM for the second.

First: CCc1ccc(NC(=O)OCC(C)(C)C(=O)NCc2ccccc2Cl)cc1 [N-[(2-chlorophenyl)methyl]-3-[N-(4-ethylphenyl)carbamoyloxy]-2,2-dimethylpropanamide]
Second: CCc1ccc(NC(=O)OCCC(C)(C)C(=O)NCc2ccccc2Cl)cc1 [N-[(2-chlorophenyl)methyl]-4-[N-(4-ethylphenyl)carbamoyloxy]-2,2-dimethylbutanamide]
The IC50 of the first is 11-fold higher: 2.51 µM for the first, 0.235 µM for the second. The second is the more potent here.

Compared with `CCc1ccc(NC(=O)OCC(C)(NC(=O)CO)C(=O)NCc2ccccc2Cl)cc1` (centres unmarked) [N-[(2-chlorophenyl)methyl]-3-[N-(4-ethylphenyl)carbamoyloxy]-2-(2-hydroxyacetylamino)-2-methylpropanamide], `CCc1ccc(NC(=O)OCC(C)(NC(=O)OC)C(=O)NCc2ccccc2Cl)cc1` (centres unmarked) [N-[(2-chlorophenyl)methyl]-3-[N-(4-ethylphenyl)carbamoyloxy]-2-(methoxycarbonylamino)-2-methylpropanamide] is 2.2-fold lower in IC50: 9.18 µM for the first, 4.09 µM for the second. The second is the more potent here.

Going from `CCc1ccc(NC(=O)OCCCC(=O)NCc2ccccc2Cl)cc1` [N-[(2-chlorophenyl)methyl]-4-[N-(4-ethylphenyl)carbamoyloxy]butanamide] to `CCc1ccc(NC(=O)CCC(C)(C)C(=O)NCc2ccccc2Cl)cc1` [N-[(2-chlorophenyl)methyl]-N′-(4-ethylphenyl)-2,2-dimethylpentane-1,5-diamide], the IC50 rises from 3.43 µM to 18.5 µM (5.4-fold). The first is the more potent here.

`CCc1ccc(NC(=O)NCCC(C)(C)C(=O)NCc2ccccc2Cl)cc1` [N-[(2-chlorophenyl)methyl]-4-{[N-(4-ethylphenyl)carbamoyl]amino}-2,2-dimethylbutanamide] and `CCc1ccc(NC(=O)NCC2(C(=O)NCc3ccccc3Cl)CC2)cc1` [N-[({N-[(2-chlorophenyl)methyl]carbamoyl}cyclopropyl)methyl][(4-ethylphenyl)amino]carboxamide] are within 1.5-fold of each other in IC50: 4.73 µM for the first, 5.23 µM for the second.

First: O=C(Nc1ccc(C(F)(F)F)cc1)OCC1(C(=O)NCc2ccccc2Cl)CCN(C(=O)CO)CC1 [N-[(2-chlorophenyl)methyl][1-(2-hydroxyacetyl)-4-({N-[4-(trifluoromethyl)phenyl]carbamoyloxy}methyl)(4-piperidyl)]carboxamide]
Second: O=C(Nc1ccc(C(F)(F)F)cc1)OCC1(C(=O)NCc2ccccc2Cl)CCOCC1 [N-[(2-chlorophenyl)methyl][4-({N-[4-(trifluoromethyl)phenyl]carbamoyloxy}methyl)(2H-3,4,5,6-tetrahydropyran-4-yl)]carboxamide]
The IC50 of the first is 2.5-fold lower: 0.456 µM for the first, 1.14 µM for the second. The first is the more potent here.

`CCc1ccc(NC(=O)NCC2CCCN2C(=O)NCc2ccccc2Cl)cc1` (centres unmarked) [N-[(2-chlorophenyl)methyl][2-({[(4-ethylphenyl)amino]carbonylamino}methyl)pyrrolidinyl]carboxamide] and `CCc1ccc(NC(=O)OC2CCCN(C(=O)NCc3ccccc3Cl)C2)cc1` (centres unmarked) [N-[(2-chlorophenyl)methyl]{3-[N-(4-ethylphenyl)carbamoyloxy]piperidyl}carboxamide] are within 1.5-fold of each other in IC50: 2.62 µM for the first, 2.26 µM for the second.

`Cc1nc(-c2ccc(NC(=O)OCC3(C(=O)NCc4ccccc4Cl)CCOCC3)cc2)cs1` [N-[(2-chlorophenyl)methyl][4-({N-[4-(2-methyl(1,3-thiazol-4-yl))phenyl]carbamoyloxy}methyl)(2H-3,4,5,6-tetrahydropyran-4-yl)]carboxamide] and `CC(O)c1ccc(NC(=O)OCC2(C(=O)NCc3ccccc3Cl)CCOCC2)cc1` (centres unmarked) [N-[(2-chlorophenyl)methyl][4-({N-[4-(hydroxyethyl)phenyl]carbamoyloxy}methyl)(2H-3,4,5,6-tetrahydropyran-4-yl)]carboxamide] are within 1.5-fold of each other in IC50: 3.92 µM for the first, 5.23 µM for the second.

Going from `CC(C)c1ccc(NC(=O)OCC2(C(=O)NCc3ccccc3Cl)CCOCC2)cc1` [N-[(2-chlorophenyl)methyl][4-({N-[4-(methylethyl)phenyl]carbamoyloxy}methyl)(2H-3,4,5,6-tetrahydropyran-4-yl)]carboxamide] to `O=C(Nc1ccccc1)OCC1(C(=O)NCc2ccccc2Cl)CCOCC1` [N-[(2-chlorophenyl)methyl]{4-[(N-phenylcarbamoyloxy)methyl](2H-3,4,5,6-tetrahydropyran-4-yl)}carboxamide], the IC50 rises from 0.498 µM to 15.2 µM (31-fold). The first is the more potent here.

Compared with `O=C(Nc1ccc(C(F)(F)F)cc1)OCC1(C(=O)NCc2ccccc2Cl)CCNCC1` [N-[(2-chlorophenyl)methyl][4-({N-[4-(trifluoromethyl)phenyl]carbamoyloxy}methyl)(4-piperidyl)]carboxamide], `CCc1ccc(NC(=O)NCC2(C(=O)NCc3ccccc3Cl)CCNCC2)cc1` [N-[(2-chlorophenyl)methyl][4-({[(4-ethylphenyl)amino]carbonylamino}methyl)(4-piperidyl)]carboxamide] is 3.1-fold higher in IC50: 5.94 µM for the first, 18.2 µM for the second. The first is the more potent here.

Compared with `CCc1ccc(NC(=O)N(C)CC2(C(=O)NCc3ccccc3Cl)CCN(C(=O)CO)CC2)cc1` [N-[(2-chlorophenyl)methyl][4-({[(4-ethylphenyl)amino]-N-methylcarbonylamino}methyl)-1-(2-hydroxyacetyl)(4-piperidyl)]carboxamide], `CCc1ccc(NC(=O)NCC2(C(=O)NCc3ccccc3Cl)CCN(C(=O)CO)CC2)cc1` [N-[(2-chlorophenyl)methyl][4-({[(4-ethylphenyl)amino]carbonylamino}methyl)-1-(2-hydroxyacetyl)(4-piperidyl)]carboxamide] is 9.9-fold lower in IC50: 18.7 µM for the first, 1.88 µM for the second.

Going from `O=C(Nc1ccc2c(c1)CCC2)OCC1(C(=O)NCc2ccccc2Cl)CCOCC1` [N-[(2-chlorophenyl)methyl]{4-[(N-indan-5-ylcarbamoyloxy)methyl](2H-3,4,5,6-tetrahydropyran-4-yl)}carboxamide] to `CCc1ccc(CC(=O)NCC2(C(=O)NCc3ccccc3Cl)CC2)cc1` [N-[({N-[(2-chlorophenyl)methyl]carbamoyl}cyclopropyl)methyl]-2-(4-ethylphenyl)acetamide], the IC50 rises from 0.361 µM to 18.2 µM (50-fold). The first is the more potent here.

`CCc1ccc(NC(=O)OCCN(C)C(=O)C(O)Cc2ccccc2C(F)(F)F)cc1` (centres unmarked) [N-{2-[N-(4-ethylphenyl)carbamoyloxy]ethyl}-2-hydroxy-N-methyl-3-[2-(trifluoromethyl)phenyl]propanamide] showed an IC50 of 17.5 µM.
